Measurements from PubChem BioAssay AID248 (DTP/NCI, 2004).
Where “and” joins values, the source holds several entries; their conditions need not be identical. Equal values may be shown once. Inconclusive results and toxic doses are left out. No stated cut-off is given here; in the data, active means T/C of 150% or more; inactive means T/C below 125%.

Test system: L1210 leukemia ip in BDF1 mice, survival T/C
Assay: NCI In Vivo Anticancer Drug Screen. Data for tumor model L1210 Leukemia (intraperitoneal) in B6D2F1 (BDF1) mice
Details: higher = longer survival
Summary of the method: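 Mice bearing the transplanted tumor received compound or vehicle. Survival of the treated group was divided by that of the vehicle-treated control group to give the ratio.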

[1] = endpoint: mean survival time, dose: 100.0 mg/kg/injection, schedule: Q04DX003 (ip), vehicle: saline with Tween-80
[2] = endpoint: mean survival time, dose: 200.0 mg/kg/injection, schedule: Q04DX003 (ip), vehicle: saline with Tween-80
[3] = endpoint: mean survival time, dose: 400.0 mg/kg/injection, schedule: Q04DX003 (ip), vehicle: saline with Tween-80
[4] = endpoint: mean survival time, dose: 100.0 mg/kg/injection, schedule: Q01DX001 (ip), vehicle: saline
[5] = endpoint: mean survival time, dose: 200.0 mg/kg/injection, schedule: Q01DX001 (ip), vehicle: saline
[6] = endpoint: mean survival time, dose: 400.0 mg/kg/injection, schedule: Q01DX001 (ip), vehicle: saline
[7] = endpoint: mean survival time, dose: 100.0 mg/kg/injection, schedule: Q04DX002 (ip), vehicle: Klucel (hydroxypropylcellulose) (HPC)
[8] = endpoint: mean survival time, dose: 200.0 mg/kg/injection, schedule: Q04DX002 (ip), vehicle: Klucel (hydroxypropylcellulose) (HPC)
[9] = endpoint: mean survival time, dose: 400.0 mg/kg/injection, schedule: Q04DX002 (ip), vehicle: Klucel (hydroxypropylcellulose) (HPC)

Measured: T/C

COc1ccc(C(=O)NC(=S)Nc2ccc(CCO)cc2)cc1
inactive: endpoint: mean survival time, dose: 100.0 mg/kg/injection, schedule: Q01DX009 (ip), vehicle: saline with Tween-80 98 % of control and 101 % of control | endpoint: mean survival time, dose: 100.0 mg/kg/injection, schedule: Q04DX002 (ip), vehicle: saline with Tween-80 98 % of control | [1] 96 % of control | endpoint: mean survival time, dose: 200.0 mg/kg/injection, schedule: Q01DX009 (ip), vehicle: saline with Tween-80 101 % of control and 102 % of control | endpoint: mean survival time, dose: 200.0 mg/kg/injection, schedule: Q04DX002 (ip), vehicle: saline with Tween-80 100 % of control | [2] 94 % of control | endpoint: mean survival time, dose: 400.0 mg/kg/injection, schedule: Q01DX009 (ip), vehicle: saline with Tween-80 94 % of control and 104 % of control | endpoint: mean survival time, dose: 400.0 mg/kg/injection, schedule: Q04DX002 (ip), vehicle: saline with Tween-80 98 % of control | [3] 92 % of control

NC(=S)N=Nc1ccc(O)cc1
inactive: endpoint: mean survival time, dose: 50.0 mg/kg/injection, schedule: Q01DX001 (ip), vehicle: saline 103 % of control | [4] 100 % of control | [5] 100 % of control | [6] 109 % of control

CCCC1=Cc2cc3c(cc2C1N(C)C)OCO3 (stereo not drawn)
inactive: endpoint: mean survival time, dose: 100.0 mg/kg/injection, schedule: Q01DX001 (ip), vehicle: Klucel (hydroxypropylcellulose) (HPC) 97 % of control | endpoint: mean survival time, dose: 200.0 mg/kg/injection, schedule: Q01DX001 (ip), vehicle: Klucel (hydroxypropylcellulose) (HPC) 97 % of control

Cc1cc(N(CCCl)CCCl)ccc1C=Nc1ccc(-c2csc(Cc3ccccc3)n2)cc1
inactive: endpoint: mean survival time, dose: 50.0 mg/kg/injection, schedule: Q01DX001 (ip), vehicle: carboxymethylcellulose (CMC) 105 % of control | endpoint: mean survival time, dose: 100.0 mg/kg/injection, schedule: Q01DX001 (ip), vehicle: carboxymethylcellulose (CMC) 103 % of control | endpoint: mean survival time, dose: 200.0 mg/kg/injection, schedule: Q01DX001 (ip), vehicle: carboxymethylcellulose (CMC) 116 % of control | endpoint: mean survival time, dose: 400.0 mg/kg/injection, schedule: Q01DX001 (ip), vehicle: carboxymethylcellulose (CMC) 97 % of control

COc1cc(/C=C2\C=Nc3ccccc32)ccc1O
inactive: [7] 97 % of control | [8] 105 % of control | [9] 102 % of control

Cc1ccc(S(=O)(=O)OC2CN(S(C)(=O)=O)CC(OS(=O)(=O)c3ccc(C)cc3)CN(S(C)(=O)=O)C2)cc1 (stereo not drawn)
inactive: endpoint: mean survival time, dose: 25.0 mg/kg/injection, schedule: Q04DX002 (ip), vehicle: Klucel (hydroxypropylcellulose) (HPC) 89 % of control | endpoint: mean survival time, dose: 50.0 mg/kg/injection, schedule: Q04DX002 (ip), vehicle: Klucel (hydroxypropylcellulose) (HPC) 103 % of control | [7] 92 % of control

CC(C)(C)NC(C1=CC(C)(C)c2ccccc2C1=O)c1ccccc1 (stereo not drawn)
inactive: endpoint: mean survival time, dose: 100.0 mg/kg/injection, schedule: Q01DX009 (ip), vehicle: Klucel (hydroxypropylcellulose) (HPC) 98 % of control | endpoint: mean survival time, dose: 100.0 mg/kg/injection, schedule: Q04DX003 (ip), vehicle: Klucel (hydroxypropylcellulose) (HPC) 110 % of control | endpoint: mean survival time, dose: 200.0 mg/kg/injection, schedule: Q01DX009 (ip), vehicle: Klucel (hydroxypropylcellulose) (HPC) 104 % of control | endpoint: mean survival time, dose: 200.0 mg/kg/injection, schedule: Q04DX003 (ip), vehicle: Klucel (hydroxypropylcellulose) (HPC) 102 % of control | endpoint: mean survival time, dose: 400.0 mg/kg/injection, schedule: Q01DX009 (ip), vehicle: Klucel (hydroxypropylcellulose) (HPC) 101 % of control | endpoint: mean survival time, dose: 400.0 mg/kg/injection, schedule: Q04DX003 (ip), vehicle: Klucel (hydroxypropylcellulose) (HPC) 102 % of control

O=C(c1ccccc1)C(Br)[N+](=O)[O-] (stereo not drawn)
inactive: [4] 100 % of control | [5] 103 % of control | [6] 96 % of control

CCCCCCCCCCCCCC(CCCCCCCCCCCC)CCCCCCCCCCCC
inactive: endpoint: mean survival time, dose: 100.0 mg/kg/injection, schedule: Q01DX001 (ip), vehicle: saline with Tween-80 92 % of control | endpoint: mean survival time, dose: 200.0 mg/kg/injection, schedule: Q01DX001 (ip), vehicle: saline with Tween-80 87 % of control | endpoint: mean survival time, dose: 400.0 mg/kg/injection, schedule: Q01DX001 (ip), vehicle: saline with Tween-80 87 % of control

O=C(/C=C/c1cccc([N+](=O)[O-])c1)c1ccccc1[N+](=O)[O-]
inactive: [7] 103 % of control | [8] 103 % of control | [9] 100 % of control

O=C(CNC1=NCCN1)Nc1ccc(NC(=O)c2ccc(C(=O)Nc3ccc(NC(=O)CNC4=NCCN4)cc3)cc2)cc1
inactive: endpoint: mean survival time, dose: 30.0 mg/kg/injection, schedule: Q01DX Z (ip), vehicle: water 114 % of control | endpoint: mean survival time, dose: 40.0 mg/kg/injection, schedule: Q01DX Z (ip), vehicle: water 120 % of control | endpoint: mean survival time, dose: 50.0 mg/kg/injection, schedule: Q01DX Z (ip), vehicle: water 121 % of control | endpoint: mean survival time, dose: 62.5 mg/kg/injection, schedule: Q01DX Z (ip), vehicle: water 124 % of control | endpoint: mean survival time, dose: 125.0 mg/kg/injection, schedule: Q01DX Z (ip), vehicle: water 118 % of control | endpoint: mean survival time, dose: 250.0 mg/kg/injection, schedule: Q01DX Z (ip), vehicle: water 109 % of control | endpoint: mean survival time, dose: 500.0 mg/kg/injection, schedule: Q01DX Z (ip), vehicle: water 106 % of control

NC(=O)NC1CCCCCCC1
inactive: [1] 98 % of control | [2] 89 % of control | [3] 95 % of control

CC1CCC2C(=CC(=O)CC2(C)C)C1 (stereo not drawn)
inactive: [4] 109 % of control | endpoint: mean survival time, dose: 100.0 mg/kg/injection, schedule: Q04DX003 (ip), vehicle: saline 108 % of control | [5] 101 % of control | endpoint: mean survival time, dose: 200.0 mg/kg/injection, schedule: Q04DX003 (ip), vehicle: saline 104 % of control | [6] 96 % of control | endpoint: mean survival time, dose: 400.0 mg/kg/injection, schedule: Q04DX003 (ip), vehicle: saline 103 % of control

CCCCCC[C@@H](O)C/C=C\CCCCCCCC(=O)OCCO
inactive: endpoint: median survival time, dose: 25.0 mg/kg/injection, schedule: Q01DX009 (ip), vehicle: saline 101 % of control | endpoint: median survival time, dose: 50.0 mg/kg/injection, schedule: Q01DX009 (ip), vehicle: saline 100 % of control | endpoint: median survival time, dose: 100.0 mg/kg/injection, schedule: Q01DX009 (ip), vehicle: saline 120 % of control | endpoint: median survival time, dose: 200.0 mg/kg/injection, schedule: Q01DX009 (ip), vehicle: saline 106 % of control | endpoint: median survival time, dose: 400.0 mg/kg/injection, schedule: Q01DX009 (ip), vehicle: saline 106 % of control | endpoint: median survival time, dose: 800.0 mg/kg/injection, schedule: Q01DX009 (ip), vehicle: saline 101 % of control

C[N+](C)(CCCCCCCCCC[N+](C)(C)Cc1ccccc1)Cc1ccccc1
inactive: endpoint: mean survival time, dose: 1.5 mg/kg/injection, schedule: Q01DX009 (ip), vehicle: saline 106 % of control | endpoint: mean survival time, dose: 1.5 mg/kg/injection, schedule: Q04DX003 (ip), vehicle: saline 95 % of control | endpoint: mean survival time, dose: 3.0 mg/kg/injection, schedule: Q01DX009 (ip), vehicle: saline 101 % of control | endpoint: mean survival time, dose: 3.0 mg/kg/injection, schedule: Q04DX003 (ip), vehicle: saline 97 % of control | endpoint: mean survival time, dose: 6.0 mg/kg/injection, schedule: Q01DX009 (ip), vehicle: saline 93 % of control | endpoint: mean survival time, dose: 6.0 mg/kg/injection, schedule: Q04DX003 (ip), vehicle: saline 95 % of control
